Experiment: Evaluation of organic electrolyte solubility together with a supporting electrolyte
Assay type: physicochemical
Settings: generation of precipitates identified
Method: In the case where an organic electrolyte is used together with a supporting electrolyte, solubility of the organic electrolyte is evaluated. As the supporting electrolyte, TEABF4 and SBPBF4 are added to each of 0.0M, 0.2M, and 0.5M propylene carbonate aliquots, and then 1.2M Fe(bpy)3(BF4)2 is added to a final volume of 10 mL. The generation of precipitates is identified for each case.

[1] = supporting electrolyte 0.0 Mole (0.0M) in propylene carbonate
[2] = supporting electrolyte 0.2 Mole (0.2M) in propylene carbonate
[3] = supporting electrolyte 0.5 Mole (0.5M) in propylene carbonate

| SMILES | Solubility of 1.2M Fe(bpy)3(BF4)2 [1] | Solubility of 1.2M Fe(bpy)3(BF4)2 [2] | Solubility of 1.2M Fe(bpy)3(BF4)2 [3] |
| --- | --- | --- | --- |
| CC[N+](CC)(CC)CC.F[B-](F)(F)F [TEABF4, tetraethylammoniumtetrafluoroborate] | Soluble | Precipitation | Precipitation |
| C1CC[N+]2(C1)CCCC2.F[B-](F)(F)F [SBPBF4, spiro-(1,1′)-bipyrrolidiniumtetrafluoroborate] | Soluble | Soluble | Soluble |

Reference: patent US9306235B2, “Redox flow battery” (SAMSUNG ELECTRONICS CO., LTD., priority 2010, dated 2016)
